Laboratory results from patent US20230117034A1, “PYRAZOLOTRIAZINES” (Bayer Aktiengesellschaft, priority 2019, published 2023).

Tests used:
[1] = target: T1, CYCLIN K (nuclear staining in CAL-120 cells) (Homo sapiens, UniProt O75909); test: CYCLIN K nuclear protein level: immunofluorescence high content analysis (CAL-120); format: cell-based; settings: 24 h, 50% reduction of nuclear CCNK staining intensity, median, read-out: CYCLIN K degradation IF, DC50-[mol/l] (median)
T1 construct: endogenous in cells; host or cells: CAL-120 human breast cancer cells (DSMZ ACC 459)
Protocol: 8. CYCLIN K nuclear protein level: immunofluorescence High Content Analysis
CAL-120 human breast cancer cells (DSMZ ACC 459) are seeded in 1536-well microtiter plates (800 cells per well) containing 50 nanoL of compounds in Dose-Response. Control wells received DMSO or Example 4. Plates are then incubated for 24 h at 37° C. in an humidified incubator and fixed with 4% PFA for 10 min. Then immunofluorescence (IF) against CYCLIN K (ThermoFisher Scientific CONK Antibody #PA5-85020, rabbit, 1:200 dilution) is performed using standard IF protocols. Cells are then stained with Hoechst 33342 (Life Technologies, H-1399, 0.1 microg/ml) and imaged on an automated confocal microscopy system (e.g. Perkin Elmer Opera Phenix). Nuclear and cytoplasmic intensity as well as the nuclear/cytoplasmic intensity ratio is determined by automated image analysis using custom generated scripts (MetaXpress). Data is then transferred to Genedata Screener software, normalized to DMSO and control and DC50 values (degrading concentration to achieve 50% reduction of nuclear CCNK staining intensity relative to controls) are reported.

[2] = tested on: BRCA1 mRNA expression in MDA-MB-231 cells; test: qRT-PCR assay: BRCA1 mRNA expression in MDA-MB-231; format: cell-based, human; settings: Homo sapiens, MDA-MB-231, Inhibition of BRCA1 mRNA expression in MDA-MB-231 cells; median; read-out: RTqPCR-MDA-MB-231, IC50, BRCA1 (median)
Procedure, shortened: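 GAPDH-normalised RT-qPCR measures the transcript after 24 h continuous compound treatment of cells seeded at 200,000/well one day earlier.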

[3] = tested on: MDA-MB-231, human breast cancer cells; test: Proliferation assay MDA-MB-231 (crystal violet, 4 days); format: cell-based; settings: Homo sapiens, MDA-MB-231, 96 h, MDA-MB-231 cells, median, read-out: Prolif-MDA MB-231, IC50-[mol/l] (median)
Protocol: Human tumour cells were originally obtained from the American Type Culture Collection (ATCC), or from the Deutsche Sammlung von Mikroorganismen und Zellkulturen (DSMZ, German Collection of Microorganisms and Cell Cultures). Cultivated tumour cells (CAL-120, human breast adenocarcinoma cells, DSMZ ACC-459; MDA-MB-231, human breast cancer cells, ATCC HTB-26) were plated at a density of 4,000 cells/well in a 96-well multititer plate in 200 microL of their respective growth medium supplemented 10% fetal calf serum. After 24 hours, the cells of one plate (zero-point plate) were stained with crystal violet (see below), while the medium of the other plates was supplemented with the test substances in various concentrations (0 micromol/L, as well as in the range of 0.01-10 micromol/L; the final concentration of the solvent dimethyl sulfoxide was adjusted to 0.1%) using a Tecan HP D300 Digital Dispenser. The cells were incubated for 4 days in the presence of test substances. Cell proliferation was determined by staining the cells with crystal violet: the cells were fixed by adding 20 microL/measuring point of an 11% glutaric aldehyde solution for 15 minutes at room temperature. After three washing cycles of the fixed cells with water, the plates were dried at room temperature. The cells were stained by adding 100 microL/measuring point of a 0.1% crystal violet solution (pH 3.0). After three washing cycles of the stained cells with water, the plates were dried at room temperature. The dye was dissolved by adding 100 microL/measuring point of a 10% acetic acid solution. The extinction was determined by photometry at a wavelength of 595 nm. The change of cell number, in percent, was calculated by normalization of the measured values to the extinction values of the zero-point plate (=0%) and the extinction of the untreated (0 μM) cells (=100%). The IC50 values (inhibitory concentration at 50% of maximal effect) were determined by means of a 4 parameter fit.

T1 sequence (O75909 whole entry): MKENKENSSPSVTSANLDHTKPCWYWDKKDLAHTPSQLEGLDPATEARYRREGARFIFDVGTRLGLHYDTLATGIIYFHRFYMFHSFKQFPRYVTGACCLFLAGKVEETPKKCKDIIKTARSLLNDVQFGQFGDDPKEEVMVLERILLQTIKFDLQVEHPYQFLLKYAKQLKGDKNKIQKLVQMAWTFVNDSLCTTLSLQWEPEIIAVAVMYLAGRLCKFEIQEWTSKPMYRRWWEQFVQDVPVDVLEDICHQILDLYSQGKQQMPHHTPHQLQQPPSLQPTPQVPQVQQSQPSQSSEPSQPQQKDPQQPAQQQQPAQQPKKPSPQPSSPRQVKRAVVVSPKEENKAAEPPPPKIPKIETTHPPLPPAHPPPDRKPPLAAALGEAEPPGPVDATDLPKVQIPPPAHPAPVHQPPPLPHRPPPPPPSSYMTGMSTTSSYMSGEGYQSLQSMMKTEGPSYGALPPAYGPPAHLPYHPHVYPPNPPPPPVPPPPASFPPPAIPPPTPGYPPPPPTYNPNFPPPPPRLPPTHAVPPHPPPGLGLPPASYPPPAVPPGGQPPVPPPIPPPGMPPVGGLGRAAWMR
T1 sequence (Q9NYV4 whole entry partner): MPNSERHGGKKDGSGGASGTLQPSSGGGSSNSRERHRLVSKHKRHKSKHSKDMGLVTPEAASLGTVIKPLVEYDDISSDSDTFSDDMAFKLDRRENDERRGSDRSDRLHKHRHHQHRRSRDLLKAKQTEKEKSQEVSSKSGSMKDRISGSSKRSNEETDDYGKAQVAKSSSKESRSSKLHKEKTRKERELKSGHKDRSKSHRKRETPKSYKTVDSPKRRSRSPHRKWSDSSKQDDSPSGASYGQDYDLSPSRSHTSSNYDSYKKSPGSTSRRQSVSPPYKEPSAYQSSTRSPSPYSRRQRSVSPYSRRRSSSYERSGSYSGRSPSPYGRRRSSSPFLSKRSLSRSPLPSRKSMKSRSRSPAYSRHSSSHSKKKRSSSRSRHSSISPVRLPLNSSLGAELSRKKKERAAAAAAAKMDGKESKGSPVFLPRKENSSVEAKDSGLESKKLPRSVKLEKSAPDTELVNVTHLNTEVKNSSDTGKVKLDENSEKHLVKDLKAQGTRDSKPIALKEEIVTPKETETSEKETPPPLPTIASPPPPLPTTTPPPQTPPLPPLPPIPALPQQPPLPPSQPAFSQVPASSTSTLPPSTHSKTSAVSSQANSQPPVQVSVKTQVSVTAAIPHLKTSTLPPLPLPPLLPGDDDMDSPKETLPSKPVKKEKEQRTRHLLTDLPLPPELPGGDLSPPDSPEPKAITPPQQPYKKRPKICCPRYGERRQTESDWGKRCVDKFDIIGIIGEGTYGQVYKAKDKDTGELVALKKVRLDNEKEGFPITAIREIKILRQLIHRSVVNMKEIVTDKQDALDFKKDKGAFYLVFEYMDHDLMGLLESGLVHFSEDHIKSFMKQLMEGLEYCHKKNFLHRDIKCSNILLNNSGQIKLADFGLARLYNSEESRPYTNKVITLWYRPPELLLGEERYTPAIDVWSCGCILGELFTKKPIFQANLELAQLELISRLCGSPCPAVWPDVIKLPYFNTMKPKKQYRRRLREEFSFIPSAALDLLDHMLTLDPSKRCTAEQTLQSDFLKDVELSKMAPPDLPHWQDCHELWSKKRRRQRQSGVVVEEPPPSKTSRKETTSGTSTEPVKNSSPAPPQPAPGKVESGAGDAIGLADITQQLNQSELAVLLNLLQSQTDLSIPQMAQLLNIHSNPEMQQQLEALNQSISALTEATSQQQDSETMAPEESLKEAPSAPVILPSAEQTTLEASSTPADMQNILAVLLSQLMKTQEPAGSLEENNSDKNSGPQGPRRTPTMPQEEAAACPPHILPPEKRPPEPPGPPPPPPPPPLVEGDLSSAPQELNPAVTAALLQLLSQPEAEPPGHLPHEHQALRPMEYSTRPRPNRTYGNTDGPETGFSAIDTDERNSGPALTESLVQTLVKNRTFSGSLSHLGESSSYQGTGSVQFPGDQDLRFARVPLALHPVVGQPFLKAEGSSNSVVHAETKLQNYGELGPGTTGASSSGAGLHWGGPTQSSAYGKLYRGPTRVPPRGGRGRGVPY

Compound | DC50 [1] [nM] | IC50 [2] [nM] | IC50 [3] [nM]
Cc1cccc2[nH]c(CNc3nc(N4CCN(C)CC4)nc4c(Br)cnn34)nc12 [Example 151, 8-bromo-N-[(4-methyl-1H-benzimidazol-2-yl)methyl]-2-(4-methylpiperazin-1-yl)pyrazolo[1,5-a][1,3,5]triazin-4-amine] | 2.45 | 18.3 | 37.2
CN1CCN(c2nc(NCc3nc4c(F)c(F)ccc4[nH]3)n3ncc(C4CC4)c3n2)CC1 [Example 159, 8-cyclopropyl-N-[(4,5-difluoro-1H-benzimidazol-2-yl)methyl]-2-(4-methylpiperazin-1-yl)pyrazolo[1,5-a][1,3,5]triazin-4-amine] | 0.0663 | 1.68 | 9.25
C[C@H]1CCCCN1c1nc(NCc2nc3ccccc3[nH]2)n2ncc(Br)c2n1 [Example 141, N-[(1H-benzimidazol-2-yl)methyl]-8-bromo-2-[(2S)-2-methylpiperidin-1-yl]pyrazolo[1,5-a][1,3,5]triazin-4-amine] | 1.74 | 16.4 | 37.8
Fc1cccc(-c2nnc(CNc3nc(N4C[C@H]5C[C@@H]4CO5)nc4c(Br)cnn34)[nH]2)c1 [Example 153, 8-bromo-N-{[5-(3-fluorophenyl)-4H-1,2,4-triazol-3-yl]methyl}-2-[(1R,4R)-2-oxa-5-azabicyclo[2.2.1]heptan-5-yl]pyrazolo[1,5-a][1,3,5]triazin-4-amine] | 1.42 | 8.2 | 24.4
C[C@H]1CN(c2nc(NCc3nc4ccccc4[nH]3)n3ncc(Br)c3n2)CCN1C [Example 132, N-[(1H-benzimidazol-2-yl)methyl]-8-bromo-2-[(3S)-3,4-dimethylpiperazin-1-yl]pyrazolo[1,5-a][1,3,5]triazin-4-amine] | 2.22 | 29.5 | 43
CN1CCN(c2nc(NCc3nc4cc(F)ccc4[nH]3)n3ncc(Br)c3n2)CC1 [Example 134, 8-bromo-N-[(5-fluoro-1H-benzimidazol-2-yl)methyl]-2-(4-methylpiperazin-1-yl)pyrazolo[1,5-a][1,3,5]triazin-4-amine] | 0.172 | 5.5 | 11.7
C[C@@H]1CN(c2nc(NCc3nnc(-c4ccccc4)[nH]3)n3ncc(Br)c3n2)C[C@H](C)N1 [Example 127, 8-bromo-2-[(3R,5S)-3,5-dimethylpiperazin-1-yl]-N-[(5-phenyl-4H-1,2,4-triazol-3-yl)methyl]pyrazolo[1,5-a][1,3,5]triazin-4-amine] | 2.77 | 16.2 | 32.5
C[C@@H]1CN(c2nc(NCc3nc4ccccc4[nH]3)n3ncc(Br)c3n2)C[C@H](C)N1C [Example 129, N-(1H-benzimidazol-2-ylmethyl)-8-bromo-2-[(3R,5S)-3,4,5-trimethylpiperazin-1-yl]pyrazolo[1,5-a][1,3,5]triazin-4-amine] | 3.39 | 174 | 132
Clc1ccc2[nH]c(CNc3nc(N4CCOCC4)nc4c(Br)cnn34)nc2c1 [Example 162, 8-bromo-N-[(5-chloro-1H-benzimidazol-2-yl)methyl]-2-(morpholin-4-yl)pyrazolo[1,5-a][1,3,5]triazin-4-amine] | 0.112 | 1.09 | 4.02
Cc1cccc2[nH]c(CNc3nc(N4CCOCC4)nc4c(Br)cnn34)nc12 [Example 150, 8-bromo-N-[(4-methyl-1H-benzimidazol-2-yl)methyl]-2-(morpholin-4-yl)pyrazolo[1,5-a][1,3,5]triazin-4-amine] | 1.48 | 13 | 38.9
Brc1cnn2c(NCc3nc4ccccc4[nH]3)nc(N3CCNCC3)nc12 [Example 128, N-[(1H-benzimidazol-2-yl)methyl]-8-bromo-2-(piperazin-1-yl)pyrazolo[1,5-a][1,3,5]triazin-4-amine] | 0.216 | 14.6 | 16
C[C@@H]1CN(c2nc(NCc3nnc(-c4ccccc4)[nH]3)n3ncc(Br)c3n2)CCN1C.O=CO [Example 130, 8-bromo-2-[(3R)-3,4-dimethylpiperazin-1-yl]-N-[(5-phenyl-4H-1,2,4-triazol-3-yl)methyl]pyrazolo[1,5-a][1,3,5]triazin-4-amine formate] | 2.01 | 37.6 | 35.6
Fc1cccc(-c2nnc(CNc3nc(N4CCNCC4)nc4c(Br)cnn34)[nH]2)c1 [Example 152, 8-bromo-N-{[5-(3-fluorophenyl)-4H-1,2,4-triazol-3-yl]methyl}-2-(piperazin-1-yl)pyrazolo[1,5-a][1,3,5]triazin-4-amine] | 1.11 | 4.25 | 12.7
CN1CCN(c2nc(NCc3nc4c(F)cccc4[nH]3)n3ncc(Br)c3n2)CC1 [Example 126, 8-bromo-N-[(4-fluoro-1H-benzimidazol-2-yl)methyl]-2-(4-methylpiperazin-1-yl)pyrazolo[1,5-a][1,3,5]triazin-4-amine] | 0.142 | 10.1 | 13.1
CC1CN(C)CCN1c1nc(NCc2nc3ccccc3[nH]2)n2ncc(Br)c2n1 (centres unmarked) [Example 156, N-(1H-benzimidazol-2-ylmethyl)-8-bromo-2-(2,4-dimethylpiperazin-1-yl)pyrazolo[1,5-a][1,3,5]triazin-4-amine] | 0.249 |  | 20.5
Brc1cnn2c(NCc3nc4ccccc4[nH]3)nc(N3C[C@@H]4CCCN[C@@H]4C3)nc12 [Example 146, N-[(1H-benzimidazol-2-yl)methyl]-8-bromo-2-[(4aS,7aS)-octahydro-6H-pyrrolo[3,4-b]pyridin-6-yl]pyrazolo[1,5-a][1,3,5]triazin-4-amine] | 0.56 | 16.1 | 43.3
CC(C)c1cnn2c(NCc3nc4ccccc4[nH]3)nc(N3CCOC[C@@H]3C)nc12 [Example 6, N-[(1H-benzimidazol-2-yl)methyl]-2-[(3S)-3-methylmorpholin-4-yl]-8-(propan-2-yl)pyrazolo[1,5-a][1,3,5]triazin-4-amine] | 2.36 | 5.43 | 16.1
CN1CCN(c2nc(NCc3nc4c(F)cccc4[nH]3)n3ncc(C4CC4)c3n2)CC1 [Example 165, 8-cyclopropyl-N-[(4-fluoro-1H-benzimidazol-2-yl)methyl]-2-(4-methylpiperazin-1-yl)pyrazolo[1,5-a][1,3,5]triazin-4-amine] | 0.155 | 2.35 | 95
C[C@H]1CN(c2nc(NCc3nnc(-c4cccc(F)c4)[nH]3)n3ncc(Br)c3n2)CCN1C [Example 154, 8-bromo-2-[(3S)-3,4-dimethylpiperazin-1-yl]-N-{[5-(3-fluorophenyl)-4H-1,2,4-triazol-3-yl]methyl}pyrazolo[1,5-a][1,3,5]triazin-4-amine] | 0.713 | 7.04 | 26.2
CC(C)c1cnn2c(NCc3nc4ccccc4[nH]3)nc(NCC(C)(C)O)nc12 [Example 10, 1-{[4-{[(1H-benzimidazol-2-yl)methyl]amino}-8-(propan-2-yl)pyrazolo[1,5-a][1,3,5]triazin-2-yl]amino}-2-methylpropan-2-ol] | 3.6 | 25.3 | 79.9
COc1ccc2[nH]c(CNc3nc(N4CCOCC4)nc4c(Br)cnn34)nc2c1 [Example 160, 8-bromo-N-[(5-methoxy-1H-benzimidazol-2-yl)methyl]-2-(morpholin-4-yl)pyrazolo[1,5-a][1,3,5]triazin-4-amine] | 0.743 | 2.95 | 9.22
